# According to patent US20150259344A1, “IMIDAZOLE DERIVATIVE” (DAINIPPON SUMITOMO PHARMA CO., LTD., priority 2012, published 2015):
# Biological target: T1, human α7 nAChR (Homo sapiens, UniProt P36544)
# T1 construct: expressed in transfected cells
# Assay: Evaluation of PAM activity with human α7 nACh receptor stably expressing cells (aequorin luminescence, FDSS7000)
# Format: cell-based
# Conditions: 1 μM test compound (values marked *, footnote of Table 25); ACh at EC20; ratio of RLU (Max-Min) to control wells; read-out: α7PAM (%) @1 μM
# Procedure: Evaluation of PAM activity with human α7 nACh receptor stably expressing cells
# (1) Human α7 nAChR stably expressing cells
# Human α7 nAChR stably expressing cells were generated and cultured.
# Thus, the cells were subcultured.
# Seven days after subculturing, the cells were treated with TrypLE Express to collect them when they were about 80% confluent.
# On the next day after seeding, Viviren (cat#E649X, Promega, Madison, Wis., USA) was added to the medium so that the final concentration could be 4 μM (15 μL/well). The plates were centrifuged and then placed in the dark for 4 hours at room temperature.
# (2) Preparation of the Test Samples
# Each of the test compounds was dissolved in DMSO to prepare each test sample at a concentration of 1000-fold the final concentration. To the solution was added Hanks/20 mM HEPES/0.2% BSA (cat#A3803, Sigma, St. Louis, Mo., USA), and the concentration was adjusted to 6-fold the final concentration.
# (3) Evaluation of PAM Activity
# FDSS7000 (Hamamatsu Photonics) was used to detect the luminescence signal evoked by α7 nAChR stimulation. The cells and a luminescent substrate were put on a plate, and the test sample was added thereto. […] The ratio of the RLU (Max-Min) of the test-compound-containing wells to that of the control wells was defined as PAM activity.
# T1 sequence (P36544 23-502): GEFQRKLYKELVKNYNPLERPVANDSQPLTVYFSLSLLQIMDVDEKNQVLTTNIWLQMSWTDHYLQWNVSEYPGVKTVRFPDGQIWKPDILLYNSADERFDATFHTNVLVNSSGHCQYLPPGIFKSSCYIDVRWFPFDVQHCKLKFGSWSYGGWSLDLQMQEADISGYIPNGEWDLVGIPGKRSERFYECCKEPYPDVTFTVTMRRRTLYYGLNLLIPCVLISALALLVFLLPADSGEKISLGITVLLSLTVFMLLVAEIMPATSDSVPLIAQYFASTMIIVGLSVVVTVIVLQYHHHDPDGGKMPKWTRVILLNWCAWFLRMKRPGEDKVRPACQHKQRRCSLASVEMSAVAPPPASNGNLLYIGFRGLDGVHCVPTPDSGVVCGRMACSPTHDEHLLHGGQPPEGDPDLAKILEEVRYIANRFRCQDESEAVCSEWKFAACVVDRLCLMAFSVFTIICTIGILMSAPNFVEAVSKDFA
row,activity at 1 µM [%],Compound
1,273,CC(C)(F)C(=O)N[C@H]1CC[C@@H](n2cnc(-c3cc(F)c(F)cc3F)c2)CC1 [Example 313]
2,180,CC(C)(C)C(=O)N[C@H]1CC[C@@H](n2cnc(-c3cccc(C(F)(F)F)c3)c2C#N)CC1 [Example 200]
3,104,O=C(NC1CCC2(CC1)CC2)N1CCC(n2cnc(-c3cccc(F)c3)c2)CC1 [Example 46]
4,119,O=C(NC1CCOCC1)[C@H]1CC[C@@H](n2cnc(-c3ccccc3F)c2)CC1 [Example 356]
5,212,CC(C)(C)C(=O)N[C@H]1CC[C@@H](n2cnc(-c3ccc(Cl)cc3)c2C#N)CC1 [Example 334]

row,Compound,activity at 1 µM [%]
1,N#Cc1c(-c2cc(F)ccc2F)ncn1[C@@H]1C[C@H]2CC[C@@H](C1)N2C(=O)NC1CCC(F)(F)CC1 [Example 423],390

# Same assay, conditions: 10 μM test compound; ACh at EC20; ratio of RLU (Max-Min) to control wells; read-out: α7PAM (%) @10 μM
row,activity at 10 µM [%],Compound
1,115,O=C(N[C@H]1CC[C@H](n2cnc(-c3ccccc3)c2Cl)CC1)C1CCC(F)(F)CC1 [Example 207]
2,390,"CC(C)(F)C(=O)N[C@H]1CC[C@@H](n2cnc(-c3ccc(Cl)cc3F)c2)CC1 [Example 283, N-{cis-4-[4-(4-chloro-2-fluorophenyl)-1H-imidazol-1-yl]cyclohexyl}-2-fluoro-2-methylpropanamide]"
3,149,CC(C)(F)C(=O)N1CCC(n2cnc(-c3ccc(F)cc3)c2C#N)CC1 [Example 266]
4,230,Cc1c(-c2ccc(F)cc2)ncn1[C@H]1CC[C@@H](NC(=O)C(C)(C)C)CC1 [Example 354]
5,188,COC1CCC(NC(=O)N2CCC(n3cnc(-c4ccc(C)s4)c3)CC2)CC1 (stereo not shown) [Example 128]
6,901,O=C(NC1CCOCC1)N1CCC(n2cnc(-c3ccc(Cl)cc3F)c2)CC1 [Example 248]
7,775,COc1ccc(-c2ncn([C@H]3CC[C@@H](NC(=O)C(C)(C)F)CC3)c2Cl)cc1Cl [Example 178]
8,398,CC(C)(F)C(=O)N[C@H]1CC[C@@H](n2cnc(-c3cc(Cl)ccc3F)c2)CC1 [Example 284]
9,377,CC(C)(F)C(=O)N[C@H]1CC[C@@H](n2cnc(-c3ccc(F)cc3F)c2C#N)CC1 [Example 340]
10,158,COc1cccc(-c2cn(C3CCN(C(=O)NC(C)(C)C)CC3)cn2)c1 [Example 70]
11,209,O=C(NC1CCCCC1)N1CCC(n2cnc(-c3ccc(C(F)(F)F)cc3)c2)CC1 [Example 23]
12,146,CC(C)(F)C(=O)N1CCC(n2cnc(-c3ccc(F)cc3)c2)CC1 [Example 260]
13,518,Cc1c(-c2ccc(F)cc2)ncn1[C@H]1CC[C@@H](NC(=O)C2CCC(F)(F)CC2)CC1 [Example 353]
14,224,O=C(N[C@H]1CC[C@@H](n2cnc(-c3ccccc3)c2Cl)CC1)C1(C(F)(F)F)CC1 [Example 174]
15,882,O=C(NC1CCC(F)(F)CC1)N1CCC(n2cnc(-c3ccccc3)c2C2CC2)CC1 [Example 113]
16,576,O=C(NC1CCCCC1)N1CCC(n2cnc(-c3ccccc3)c2C2CC2)CC1 [Example 108]
17,211,CC(C)(C(=O)N[C@H]1CC[C@@H](n2cnc(-c3ccc(Cl)cc3)c2)CC1)C(F)(F)F [Example 293]
18,738,O=C(NC1CCCCC1)N1CCC(n2cnc(-c3ccc(C(F)(F)F)cn3)c2)CC1 [Example 131]
19,420,Cc1c(-c2ccc(F)cc2)ncn1C1CCN(C(=O)NC2CCOCC2)CC1 [Example 259]

row,activity at 10 µM [%],Compound
1,133,Cc1nc(-c2ccccc2)cn1C1CCN(C(=O)NC2CCCCC2)CC1 [Example 114]
2,862,O=C(C1CCC(F)(F)CC1)N1CCC(n2cnc(-c3ccc(F)cc3)c2Cl)CC1 [Example 149]
3,125,O=C(N[C@H]1CC[C@@H](n2cnc(-c3ccc(F)cc3)c2)CC1)C(F)F [Example 289]
4,101,O=C(N[C@H]1CC[C@@H](n2cnc(-c3ccc(Cl)cc3)c2)CC1)C(F)F [Example 292]
5,452,CCc1c(-c2ccccc2)ncn1C1CCN(C(=O)NC2CCCCC2)CC1 [Example 103]
6,634,COc1ccc(-c2cn([C@H]3CC[C@@H](NC(=O)C(C)(C)F)CC3)cn2)c(F)c1 [Example 307]
7,420,CC(F)(F)C(=O)N[C@H]1CC[C@@H](n2cnc(-c3ccc(Cl)cc3)c2)CC1 [Example 291]
8,131,CC(C)(F)C(=O)N[C@H]1CC[C@@H](n2cnc(-c3ccc(OC(F)(F)F)c(F)c3)c2C#N)CC1 [Example 348]
9,759,N#Cc1c(-c2ccc(F)cc2)ncn1C1CCN(C(=O)NC2CCCCC2)CC1 [Example 255]
10,244,Cc1c(-c2ccc(F)cc2)ncn1C1CCN(C(=O)C2CCOCC2)CC1 [Example 276]
11,781,O=C(C1CCOCC1)N1CCC(n2cnc(-c3ccc(Cl)cc3)c2Cl)CC1 [Example 264]
12,169,O=C(NC1CC2CCC1C2)N1CCC(n2cnc(-c3cccc(OC(F)F)c3)c2)CC1 (stereo not shown) [Example 56]
13,422,COc1cccc(-c2cn(C3CCN(C(=O)NC4CCCCC4)CC3)cn2)c1 [Example 71]
14,459,Cc1ccc(-c2cn(C3CCN(C(=O)NC4CCCC4)CC3)cn2)s1 [Example 122]
15,492,CC(C)(F)C(=O)N[C@H]1CC[C@@H](n2cnc(-c3ccccc3F)c2C#N)CC1 [Example 337]
16,132,N#Cc1c(-c2cccc(C(F)(F)F)c2)ncn1C1CCN(C(=O)C2CCC(F)(F)CC2)CC1 [Example 158]
17,369,CC(C)(F)C(=O)N[C@H]1CC[C@@H](n2cnc(-c3ccc(F)c(F)c3)c2C#N)CC1 [Example 342]
18,990,COc1ccc(-c2ncn(C3CCN(C(=O)C4CCC(F)(F)CC4)CC3)c2C#N)cc1 [Example 265]

row,Compound,activity at 10 µM [%]
1,O=C(C1CCC(F)(F)CC1)N1[C@@H]2CC[C@H]1C[C@H](n1cnc(-c3cccc(F)c3F)c1Cl)C2 [Example 457],865
2,O=C(NC1CCCCC1)N1[C@@H]2CC[C@H]1C[C@@H](n1cnc(-c3ccc(F)cc3)c1)C2 [Example 382],222
3,O=C(NC1CCC(F)(F)CC1)N1[C@@H]2CC[C@H]1C[C@H](n1cnc(-c3ccc(F)cc3F)c1)C2 [Example 407],904
4,O=C(C1CCOCC1)N1[C@@H]2CC[C@H]1C[C@H](n1cnc(-c3cccc(F)c3F)c1Cl)C2 [Example 458],434
5,O=C(C1CCOCC1)N1[C@@H]2CC[C@H]1C[C@@H](n1cnc(-c3ccc(F)cc3F)c1Cl)C2 [Example 436],300
6,O=C(C1CCC(F)(F)CC1)N1[C@@H]2CC[C@H]1C[C@H](n1cnc(-c3cc(F)ccc3F)c1Cl)C2 [Example 459],730
7,O=C(NC1CCCCC1)N1[C@@H]2CC[C@H]1C[C@H](n1cnc(-c3cc(F)ccc3F)c1)C2 [Example 411],229

# Same assay, conditions: GH4-C1, 10 μM test compound; ratio of RLU (Max-Min) of test wells to control wells after ACh at EC20; GH4C1 cells expressing human α7 nAChR and aequorin; read-out: α7PAM (%) @10 μM
row,activity at 10 µM [%],Compound
1,631,"FC(F)(F)c1cc(N[C@H]2CC[C@@H](n3cnc(-c4ccccc4)c3)CC2)ncn1 [Example 235, N-[cis-4-(4-Phenyl-1H-imidazol-1-yl)cyclohexyl]-6-(trifluoromethyl)pyrimidin-4-amine]"

# Same assay, conditions: comparison across Tables 18 to 25
row,Compound,PAM activity for α7 nAChR (in words)
1,O=C(NC1CCOCC1)N1[C@@H]2CC[C@H]1C[C@H](n1cnc(-c3ccc(F)cc3F)c1Cl)C2 [Example 416],stronger PAM activity than others
